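GI50 is the concentration that inhibits growth by half. TGI denotes the concentration required for complete inhibition of growth.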
Legend:
Experiment in all cases: NCI anticancer screen, dose series, 384-well format
[1] = tested on: CCRF-CEM leukemia
[2] = tested on: SN12C renal
[3] = tested on: HS 578T breast
[4] = tested on: EKVX NSCLC
[5] = tested on: OVCAR-4 ovarian
[6] = tested on: HL-60(TB) leukemia
[7] = tested on: CAKI-1 renal
[8] = tested on: M14 melanoma
[9] = tested on: DU-145 prostate
[10] = tested on: UACC-62 melanoma
[11] = tested on: 786-0 renal
[12] = tested on: BT-549 breast
[13] = tested on: HCT-15 colon
[14] = tested on: UO-31 renal
[15] = tested on: SNB-75 CNS
[16] = tested on: T-47D breast
[17] = tested on: ACHN renal
[18] = tested on: TK-10 renal
[19] = tested on: MDA-MB-435 melanoma
[20] = tested on: MALME-3M melanoma
[21] = tested on: SK-MEL-5 melanoma
[22] = tested on: NCI-H23 lung
[23] = tested on: U251 glioblastoma
[24] = tested on: NCI-H322M lung
[25] = tested on: HOP-92 NSCLC
[26] = tested on: KM12 colon
[27] = tested on: A549 NSCLC
[28] = tested on: SNB-19 CNS
[29] = tested on: LOX IMVI melanoma
[30] = tested on: NCI-H226 lung
[31] = tested on: SF-268 CNS
[32] = tested on: COLO 205 colon
[33] = tested on: OVCAR-8 ovarian
[34] = tested on: SF-295 CNS
[35] = tested on: SF-539 CNS
[36] = tested on: NCI/ADR-RES ovarian
[37] = tested on: SK-OV-3 ovarian
[38] = tested on: A498 renal
[39] = tested on: MOLT-4 leukemia
[40] = tested on: SK-MEL-28 melanoma
[41] = tested on: OVCAR-3 ovarian
[42] = tested on: UACC-257 melanoma
[43] = tested on: HCT-116 colon
[44] = tested on: IGROV1 ovarian
[45] = tested on: MCF7 breast
[46] = tested on: RXF 393 renal
[47] = tested on: MDA-MB-231 breast
[48] = tested on: HT29 colon
[49] = tested on: K-562 leukemia
[50] = tested on: SW-620 colon
[51] = tested on: MDA-MB-468 breast
[52] = tested on: RPMI-8226 leukemia
[53] = tested on: HCC-2998 colon
[54] = tested on: HOP-62 NSCLC
[55] = tested on: NCI-H460 NSCLC
[56] = tested on: PC-3 prostate
[57] = tested on: NCI-H522 lung

Cc1ccc2c(=O)c3cccc(CC(=O)O)c3oc2c1C
GI50 [1]: > 100 µM
TGI [1]: > 100 µM
GI50 [2]: > 100 µM
TGI [2]: > 100 µM
GI50 [3]: > 100 µM
TGI [3]: > 100 µM
GI50 [4]: > 100 µM
TGI [4]: > 100 µM
GI50 [5]: > 100 µM
TGI [5]: > 100 µM
GI50 [6]: > 100 µM
TGI [6]: > 100 µM
GI50 [7]: > 100 µM
TGI [7]: > 100 µM
GI50 [8]: > 100 µM
TGI [8]: > 100 µM
GI50 [9]: > 100 µM
TGI [9]: > 100 µM
GI50 [10]: > 100 µM
TGI [10]: > 100 µM
GI50 [11]: > 100 µM
TGI [11]: > 100 µM
GI50 [12]: > 100 µM
TGI [12]: > 100 µM
GI50 [13]: > 100 µM
TGI [13]: > 100 µM
GI50 [14]: > 100 µM
TGI [14]: > 100 µM
GI50 [15]: > 100 µM
TGI [15]: > 100 µM
GI50 [16]: > 100 µM
TGI [16]: > 100 µM
GI50 [17]: > 100 µM
TGI [17]: > 100 µM
GI50 [18]: > 100 µM
TGI [18]: > 100 µM
GI50 [19]: > 100 µM
TGI [19]: > 100 µM
GI50 [20]: > 100 µM
TGI [20]: > 100 µM
GI50 [21]: > 100 µM
TGI [21]: > 100 µM
GI50 [22]: > 100 µM
TGI [22]: > 100 µM
GI50 [23]: > 100 µM
TGI [23]: > 100 µM
GI50 [24]: > 100 µM
TGI [24]: > 100 µM
GI50 [25]: > 100 µM
TGI [25]: > 100 µM
GI50 [26]: > 100 µM
TGI [26]: > 100 µM
GI50 [27]: > 100 µM
TGI [27]: > 100 µM
GI50 [28]: > 100 µM
TGI [28]: > 100 µM
GI50 [29]: > 100 µM
TGI [29]: > 100 µM
GI50 [30]: > 100 µM
TGI [30]: > 100 µM
GI50 [31]: > 100 µM
TGI [31]: > 100 µM
GI50 [32]: > 100 µM
TGI [32]: > 100 µM
GI50 [33]: > 100 µM
TGI [33]: > 100 µM
GI50 [34]: > 100 µM
TGI [34]: > 100 µM
GI50 [35]: > 100 µM
TGI [35]: > 100 µM
GI50 [36]: > 100 µM
TGI [36]: > 100 µM
GI50 [37]: > 100 µM
TGI [37]: > 100 µM
GI50 [38]: > 100 µM
TGI [38]: > 100 µM
GI50 [39]: > 100 µM
TGI [39]: > 100 µM
GI50 [40]: > 100 µM
TGI [40]: > 100 µM
GI50 [41]: > 100 µM
TGI [41]: > 100 µM
GI50 [42]: > 100 µM
TGI [42]: > 100 µM
GI50 [43]: > 100 µM
TGI [43]: > 100 µM
GI50 [44]: > 100 µM
TGI [44]: > 100 µM
GI50 [45]: > 100 µM
TGI [45]: > 100 µM
GI50 [46]: > 100 µM
TGI [46]: > 100 µM
GI50 [47]: > 100 µM
TGI [47]: > 100 µM
GI50 [48]: > 100 µM
TGI [48]: > 100 µM
GI50 [49]: > 100 µM
TGI [49]: > 100 µM
GI50 [50]: > 100 µM
TGI [50]: > 100 µM
GI50 [51]: > 100 µM
TGI [51]: > 100 µM
GI50 [52]: > 100 µM
TGI [52]: > 100 µM
GI50 [53]: > 100 µM
TGI [53]: > 100 µM
GI50 [54]: > 100 µM
TGI [54]: > 100 µM
GI50 [55]: > 100 µM
TGI [55]: > 100 µM
GI50 [56]: > 100 µM
TGI [56]: > 100 µM
GI50 [57]: > 100 µM
TGI [57]: > 100 µM
